Experimental findings from ChEMBL document CHEMBL3259669, “The discovery and SAR of cyclopenta[b]furans as inhibitors of CCR2” (Bioorg Med Chem Lett, 2014) are described below.

One series relates to Plasma. The series can be described thus: Plasma concentration in thioglycolate-induced peritoneal leukocyte infiltration in human CCR2 knock-in mouse model at 1 mg/kg, po. It counts as ADME, organism-based. More on the design: dose 1 mg/kg, route oral. To be noted: in vivo.
For series [1] the following is noted: rat, microsomes.
For series [2] the following is noted: human, microsomes.
Series [3] in a line: in vivo. To be noted: rat, po, 10 mg/kg.
Series [4] in a line: Plasma concentration in guinea pig at 10 mg/kg. Type of series: ADME, organism-based, Cavia porcellus. More on the design: dose 10 mg/kg. To be noted: in vivo.
The species entered for another series is Rattus norvegicus. To be noted: in vivo, iv, 2 mg/kg.
The nature of series [5]: in vivo. To be noted: rat, plasma.
The nature of series [6]: in vivo. Particulars: rat, po, 10 mg/kg. The source holds these as a separate data set.
The nature of series [7]: in vivo. To be noted: rat.
The nature of series [8]: in vivo. Particulars: rat, iv, 2 mg/kg.
For series [9] the following is noted: buffer.

The term bioavailability denotes the share of a dose that reaches the circulation, judged against a reference dose that is usually intravenous. Low values mean poor availability, high ones good availability. Usually AUC(0-t) stands for exposure summed from dosing to a finite time, without extrapolation to infinity. The low end stands for low exposure, the high end for high exposure. By Cmax is commonly meant the maximum level reached in the sampled fluid or tissue. By half-life is commonly meant the time needed for the level to fall by half in the phase considered. A low value points to fast loss. Usually Vd stands for a proportionality between amount in the body and measured concentration, not a real space. Low values mean little distribution into tissue, high ones wide distribution into tissue. Consider `CO[C@@H]1COCC[C@@H]1N[C@@H]1C[C@H]2OCC[C@@]2(C(=O)N2CCc3ncc(C(F)(F)F)cc3C2)C1`, for which the figures for the concentration (in the series on Plasma; in series [4]) were 0.097 µM and 23 µM, respectively. Moreover, the Stability result in series [1] and in [2] was “Stable” throughout. Moreover, the bioavailability in “in vivo [3]” was found to be 94%. Also, the CL in the series listed under Rattus norvegicus worked out at 15.6 mL/mg/kg. Further, the AUC(0-t) in the series “in vivo [5]” worked out at 9760 ng·h/mL. The Cmax in “in vivo [6]” stood at 2200 ng/mL. The compound further had a half-life in the series “in vivo [7]” of 3.8 h. In “in vivo [8]”, this compound gave a Vd of 3.2 L/kg. Besides, the solubility result in series [9] is reported as “soluble”.
Regarding `CO[C@H]1COCC[C@H]1N[C@@H]1C[C@H]2OCC[C@@]2(C(=O)N2CCc3ncc(C(F)(F)F)cc3C2)C1`, the concentration with Plasma amounted to 0.098 µM; in series [4], 18 µM. The Stability result in [1] and in series [2] was “Stable” in each case. The same compound yielded a bioavailability in “in vivo [3]” of 91%. Besides, in the series filed under Rattus norvegicus, the CL came to 43.2 mL/mg/kg. This compound also returned an AUC(0-t) in “in vivo [5]” of 3540 ng·h/mL. In the series “in vivo [6]”, the Cmax was found to be 632 ng/mL. In the series “in vivo [7]”, this compound had a half-life of 3.5 h. Also, the Vd in “in vivo [8]” was 5 L/kg. In addition, in [9], the solubility result was “soluble”.
